Assay results taken from patent US9138436B2, “Inhibitors of Bruton's tyrosine kinase” (PHARMACYCLICS LLC, priority 2011, dated 2015).

These compounds were tested against Btk (Homo sapiens, UniProt Q06187) (assay: Btk in vitro inhibitory activity, acellular kinase assay (TR-FRET)).
Type: biochemical
Method: Btk kinase activity is determined using a time-resolved fluorescence resonance energy transfer (TR-FRET) methodology. Measurements are performed in a reaction volume of 50 μL using 96-well assay plates. Kinase enzyme, inhibitor, ATP (at the Km for the kinase), and 1 μM peptide substrate (Biotin-AVLESEEELYSSARQ-NH2) are incubated in a reaction buffer composed of 20 mM Tris, 50 mM NaCl, MgCl2 (5-25 mM depending on the kinase), MnCl2 (0-10 mM), 1 mM DTT, 0.1 mM EDTA, 0.01% bovine serum albumin, 0.005% Tween-20, and 10% DMSO at pH 7.4 for one hour. The reaction is quenched by the addition of 1.2 equivalents of EDTA (relative to divalent cation) in 25 μL of 1× Lance buffer (Perkin-Elmer). Streptavidin-APC (Perkin-Elmer) and Eu-labeled p-Tyr100 antibody (Perkin-Elmer) in 1× Lance buffer are added in a 25 μL volume to give final concentrations of 100 nM and 2.5 nM, respectively, and the mixture is allowed to incubate for one hour. The TR-FRET signal is measured on a multimode plate reader with an excitation wavelength (λEx) of 330 nm and detection wavelengths (λEm) of 615 and 665 nm. Activity is determined by the ratio of the fluorescence at 665 nm to that at 615 nm. For each compound, enzyme activity is measured at various concentrations of compound. Negative control reactions are performed in the absence of inhibitor in replicates of six, and two no-enzyme controls were used to determine baseline fluorescence levels. Inhibition constants, Ki(app), are obtained using the program BatchKi (Kuzmic et al. (2000), Anal. Biochem. 286:45-50). IC50s are obtained according to the equation: IC50={Ki(app)/(1+[ATP]/Km^ATP)}+[E]total/2;
For all kinases, [ATP]=Km^ATP, [Btk]total=0.5 nM and [Lck]total=6 nM.

Btk, sequence (Q06187 whole entry): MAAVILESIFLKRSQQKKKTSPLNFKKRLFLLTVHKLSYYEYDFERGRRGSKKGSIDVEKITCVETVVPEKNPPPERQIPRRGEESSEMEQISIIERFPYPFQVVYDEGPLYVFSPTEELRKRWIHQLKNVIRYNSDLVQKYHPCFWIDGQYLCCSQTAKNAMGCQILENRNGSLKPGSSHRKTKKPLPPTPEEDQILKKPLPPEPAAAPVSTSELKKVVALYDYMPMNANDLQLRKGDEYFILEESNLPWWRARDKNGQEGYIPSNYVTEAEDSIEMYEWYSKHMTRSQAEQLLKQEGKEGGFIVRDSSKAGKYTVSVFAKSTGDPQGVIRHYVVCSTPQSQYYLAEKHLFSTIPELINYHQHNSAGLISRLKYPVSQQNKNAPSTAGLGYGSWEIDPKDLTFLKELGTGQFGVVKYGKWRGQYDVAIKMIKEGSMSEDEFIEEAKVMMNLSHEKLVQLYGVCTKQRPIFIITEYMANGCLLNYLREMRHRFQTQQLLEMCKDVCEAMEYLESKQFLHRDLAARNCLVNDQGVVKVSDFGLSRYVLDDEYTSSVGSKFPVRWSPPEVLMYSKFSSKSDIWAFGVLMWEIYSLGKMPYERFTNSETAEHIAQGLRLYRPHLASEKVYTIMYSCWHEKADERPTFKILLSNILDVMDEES

| SMILES | IC50 |
| --- | --- |
| Nc1ncnc2c1c(-c1ccc(Oc3ccccc3)cc1)nn2[C@@H]1CCN(C(=O)/C=C/CN(C2CC2)C2CC2)C1 [Example 2a, (R,E)-1-(3-(4-amino-3-(4-phenoxyphenyl)-1H-pyrazolo[3,4-d]pyrimidin-1-yl)pyrrolidin-1-yl)-4-(dicyclopropylamino)but-2-en-1-one] | < 100 nM |
| CN(C/C=C/C(=O)N1CC[C@@H](n2nc(-c3ccc(Oc4ccccc4)cc3)c3c(N)ncnc32)C1)C1CCC1 [Example 2aa, (R,E)-1-(3-(4-amino-3-(4-phenoxyphenyl)-1H-pyrazolo[3,4-d]pyrimidin-1-yl)pyrrolidin-1-yl)-4-(cyclobutyl(methyl)amino)but-2-en-1-one] | < 100 nM |
| Nc1ncnc2c1c(-c1ccc(Oc3ccccc3)cc1)nn2[C@@H]1CCN(C(=O)/C=C/CNC2CCC2)C1 [Example 2ab, (R,E)-1-(3-(4-amino-3-(4-phenoxyphenyl)-1H-pyrazolo[3,4-d]pyrimidin-1-yl)pyrrolidin-1-yl)-4-(cyclobutylamino)but-2-en-1-one] | < 100 nM |
| CN1CCC(N(C)C/C=C/C(=O)N2CC[C@@H](n3nc(-c4ccc(Oc5ccccc5)cc4)c4c(N)ncnc43)C2)CC1 [Example 2ac, (R,E)-1-(3-(4-amino-3-(4-phenoxyphenyl)-1H-pyrazolo[3,4-d]pyrimidin-1-yl)pyrrolidin-1-yl)-4-(methyl(1-methylpiperidin-4-yl)amino)but-2-en-1-one] | < 100 nM |
| CN1CCC(NC/C=C/C(=O)N2CC[C@@H](n3nc(-c4ccc(Oc5ccccc5)cc4)c4c(N)ncnc43)C2)CC1 [Example 2ad, (R,E)-1-(3-(4-amino-3-(4-phenoxyphenyl)-1H-pyrazolo[3,4-d]pyrimidin-1-yl)pyrrolidin-1-yl)-4-(1-methylpiperidin-4-ylamino)but-2-en-1-one] | < 100 nM |
| CN(C/C=C/C(=O)N1CCC[C@@H](n2nc(-c3ccc(Oc4ccccc4)cc3)c3c(N)ncnc32)C1)C1CC1 [Example 2ae, (R,E)-1-(3-(4-amino-3-(4-phenoxyphenyl)-1H-pyrazolo[3,4-d]pyrimidin-1-yl)piperidin-1-yl)-4-(cyclopropyl(methyl)amino)but-2-en-1-one] | < 100 nM |
| Nc1ncnc2c1c(-c1ccc(Oc3ccccc3)cc1)nn2[C@@H]1CCCN(C(=O)/C=C/CNC2CC2)C1 [Example 2af, (R,E)-1-(3-(4-amino-3-(4-phenoxyphenyl)-1H-pyrazolo[3,4-d]pyrimidin-1-yl)piperidin-1-yl)-4-(cyclopropylamino)but-2-en-1-one] | < 100 nM |
| CN(C/C=C/C(=O)N1CCC[C@@H](n2nc(-c3ccc(Oc4ccccc4)cc3)c3c(N)ncnc32)C1)C1CCCCC1 [Example 2ag, (R,E)-1-(3-(4-amino-3-(4-phenoxyphenyl)-1H-pyrazolo[3,4-d]pyrimidin-1-yl)piperidin-1-yl)-4-(cyclohexyl(methyl)amino)but-2-en-1-one] | < 100 nM |
| Nc1ncnc2c1c(-c1ccc(Oc3ccccc3)cc1)nn2[C@@H]1CCCN(C(=O)/C=C/CNC2CCCCC2)C1 [Example 2ah, (R,E)-1-(3-(4-amino-3-(4-phenoxyphenyl)-1H-pyrazolo[3,4-d]pyrimidin-1-yl)piperidin-1-yl)-4-(cyclohexylamino)but-2-en-1-one] | < 100 nM |
| CN(C/C=C/C(=O)N1CCC[C@@H](n2nc(-c3ccc(Oc4ccccc4)cc3)c3c(N)ncnc32)C1)C1CCCC1 [Example 2ai, (R,E)-1-(3-(4-amino-3-(4-phenoxyphenyl)-1H-pyrazolo[3,4-d]pyrimidin-1-yl)piperidin-1-yl)-4-(cyclopentyl(methyl)amino)but-2-en-1-one] | < 100 nM |
| Nc1ncnc2c1c(-c1ccc(Oc3ccccc3)cc1)nn2[C@@H]1CCCN(C(=O)/C=C/CNC2CCCC2)C1 [Example 2aj, (R,E)-1-(3-(4-amino-3-(4-phenoxyphenyl)-1H-pyrazolo[3,4-d]pyrimidin-1-yl)piperidin-1-yl)-4-(cyclopentylamino)but-2-en-1-one] | < 100 nM |
| CN(C/C=C/C(=O)N1CCC[C@@H](n2nc(-c3ccc(Oc4ccccc4)cc3)c3c(N)ncnc32)C1)C1CCC1 [Example 2ak, (R,E)-1-(3-(4-amino-3-(4-phenoxyphenyl)-1H-pyrazolo[3,4-d]pyrimidin-1-yl)piperidin-1-yl)-4-(cyclobutyl(methyl)amino)but-2-en-1-one] | < 100 nM |
| Nc1ncnc2c1c(-c1ccc(Oc3ccccc3)cc1)nn2[C@@H]1CCCN(C(=O)/C=C/CNC2CCC2)C1 [Example 2am, (R,E)-1-(3-(4-amino-3-(4-phenoxyphenyl)-1H-pyrazolo[3,4-d]pyrimidin-1-yl)piperidin-1-yl)-4-(cyclobutylamino)but-2-en-1-one] | < 100 nM |
| CN1CCC(N(C)C/C=C/C(=O)N2CCC[C@@H](n3nc(-c4ccc(Oc5ccccc5)cc4)c4c(N)ncnc43)C2)CC1 [Example 2an, (R,E)-1-(3-(4-amino-3-(4-phenoxyphenyl)-1H-pyrazolo[3,4-d]pyrimidin-1-yl)piperidin-1-yl)-4-(methyl(1-methylpiperidin-4-yl)amino)but-2-en-1-one] | < 100 nM |
| CN1CCC(NC/C=C/C(=O)N2CCC[C@@H](n3nc(-c4ccc(Oc5ccccc5)cc4)c4c(N)ncnc43)C2)CC1 [Example 2ao, (R,E)-1-(3-(4-amino-3-(4-phenoxyphenyl)-1H-pyrazolo[3,4-d]pyrimidin-1-yl)piperidin-1-yl)-4-(1-methylpiperidin-4-ylamino)but-2-en-1-one] | < 100 nM |
| CCN(C/C=C/C(=O)N1CC[C@@H](n2nc(-c3ccc(Oc4ccccc4)cc3)c3c(N)ncnc32)C1)C1CCC1 [Example 2ap, (R,E)-1-(3-(4-amino-3-(4-phenoxyphenyl)-1H-pyrazolo[3,4-d]pyrimidin-1-yl)pyrrolidin-1-yl)-4-(cyclobutyl(ethyl)amino)but-2-en-1-one] | < 100 nM |
| CC(C)N(C/C=C/C(=O)N1CC[C@@H](n2nc(-c3ccc(Oc4ccccc4)cc3)c3c(N)ncnc32)C1)C1CCC1 [Example 2aq, (R,E)-1-(3-(4-amino-3-(4-phenoxyphenyl)-1H-pyrazolo[3,4-d]pyrimidin-1-yl)pyrrolidin-1-yl)-4-(cyclobutyl(isopropyl)amino)but-2-en-1-one] | < 100 nM |

Second part, the compound after the results:

| IC50 | SMILES |
| --- | --- |
| < 100 nM | Nc1ncnc2c1c(-c1ccc(Oc3ccccc3)cc1)nn2[C@@H]1CCN(C(=O)/C=C/CNC2CCOCC2)C1 [Example 1d, (R,E)-1-(3-(4-amino-3-(4-phenoxyphenyl)-1H-pyrazolo[3,4-d]pyrimidin-1-yl)pyrrolidin-1-yl)-4-(tetrahydro-2H-pyran-4-ylamino)but-2-en-1-one] |
| < 100 nM | Nc1ncnc2c1c(-c1ccc(Oc3ccccc3)cc1)nn2[C@@H]1CCCN(C(=O)/C=C/CNC2CCOCC2)C1 [Example 1f, (R,E)-1-(3-(4-amino-3-(4-phenoxyphenyl)-1H-pyrazolo[3,4-d]pyrimidin-1-yl)piperidin-1-yl)-4-(tetrahydro-2H-pyran-4-ylamino)but-2-en-1-one] |
| < 100 nM | CN(C/C=C/C(=O)N1CC[C@@H](n2nc(-c3ccc(Oc4ccccc4)cc3)c3c(N)ncnc32)C1)C1CCOCC1 [Example 1k, (R,E)-1-(3-(4-amino-3-(4-phenoxyphenyl)-1H-pyrazolo[3,4-d]pyrimidin-1-yl)pyrrolidin-1-yl)-4-(methyl(tetrahydro-2H-pyran-4-yl)amino)but-2-en-1-one] |
| < 100 nM | CN(C/C=C/C(=O)N1CCC[C@@H](n2nc(-c3ccc(Oc4ccccc4)cc3)c3c(N)ncnc32)C1)C1CCOCC1 [Example 1q, (R,E)-1-(3-(4-amino-3-(4-phenoxyphenyl)-1H-pyrazolo[3,4-d]pyrimidin-1-yl)piperidin-1-yl)-4-(methyl(tetrahydro-2H-pyran-4-yl)amino)but-2-en-1-one] |
| < 100 nM | CN(C/C=C/C(=O)N1CC[C@@H](n2nc(-c3ccc(Oc4ccccc4)cc3)c3c(N)ncnc32)C1)c1ccccn1 [Example 1r, (R,E)-1-(3-(4-amino-3-(4-phenoxyphenyl)-1H-pyrazolo[3,4-d]pyrimidin-1-yl)pyrrolidin-1-yl)-4-(methyl(pyridin-2-yl)amino)but-2-en-1-one] |
| < 100 nM | Nc1ncnc2c1c(-c1ccc(Oc3ccccc3)cc1)nn2[C@@H]1CCN(C(=O)/C=C/CNc2ccccn2)C1 [Example 1s, (R,E)-1-(3-(4-amino-3-(4-phenoxyphenyl)-1H-pyrazolo[3,4-d]pyrimidin-1-yl)pyrrolidin-1-yl)-4-(pyridin-2-ylamino)but-2-en-1-one] |
| < 100 nM | CN(C/C=C/C(=O)N1CCC[C@@H](n2nc(-c3ccc(Oc4ccccc4)cc3)c3c(N)ncnc32)C1)c1ccccn1 [Example 1t, (R,E)-1-(3-(4-amino-3-(4-phenoxyphenyl)-1H-pyrazolo[3,4-d]pyrimidin-1-yl)piperidin-1-yl)-4-(methyl(pyridin-2-yl)amino)but-2-en-1-one] |
| < 100 nM | Nc1ncnc2c1c(-c1ccc(Oc3ccccc3)cc1)nn2[C@@H]1CCCN(C(=O)/C=C/CNc2ccccn2)C1 [Example 1u, (R,E)-1-(3-(4-amino-3-(4-phenoxyphenyl)-1H-pyrazolo[3,4-d]pyrimidin-1-yl)piperidin-1-yl)-4-(pyridin-2-ylamino)but-2-en-1-one] |
